Measurements reported in paper PMC7381729, “A new class of PentixaFor- and PentixaTher-based theranostic agents with enhanced CXCR4-targeting efficiency” (Theranostics, 2020).
Read-outs that look alike come from different tables or passages of the source. One block for each molecule: values may come before it. Where a SMILES comes first, the peptide text is derived from it. Side-chain parts run from the residue outwards. [ ]: non-standard residue; d: D form. The star is where a group is joined. DOTA = O=C(O)CN1CCN(CC(=O)O)CCN(CC(=O)*)CCN(CC(=O)O)CC1; dTyr(3-I) = N[C@H](Cc1ccc(O)c(I)c1)C(=O)O; 2Nal = N[C@@H](Cc1ccc2ccccc2c1)C(=O)O; dNMeOrn = CN[C@H](CCCN)C(=O)O; 4Abz = Nc1ccc(C(=O)O)cc1

Experiments:
[1] = Biodistribution in Daudi xenograft bearing mice; format: in vivo, mouse; conditions: female, CB-17 SCID, mouse, iv, total radioactivity, means ± SD; for tissue uptake at 6 h: 6h p.i.; for tissue uptake at 48 h / tissue to tissue ratio at 48 h: 48h p.i.; for tissue to tissue ratio at 48 h: n=4-5 animals
Method: The biodistribution of selected compounds was investigated in Daudi (human B-cell lymphoma) xenograft bearing female CB-17 SCID mice (6-8 weeks, Charles River, Sulzfeld, Germany), [29]. All animal experiments were performed in accordance with current animal welfare regulations in Germany (approval #55.2-1-54-2532-71-13).
Animals (n=4-5 per group) were injected intravenously with 5-10 MBq (0.08-0.11 nmol peptide per mouse) of the respective ^68Ga- and^ 177Lu-labeled CXCR4 ligands in PBS (100 µL) into the tail vein under isoflurane anesthesia. CXCR4-specificity of binding was determined by coinjection of 50 µg AMD3100 per mouse. The animals were sacrificed 1, 6 and 48h post injection (p.i.), and the organs of interest were dissected. The radioactivity was measured in weighted tissue samples using a γ-counter. Data are expressed in % ID/g tissue (mean ± SD).

human CXCR4 (hCXCR4) = target: T1, human CXCR4 (hCXCR4) (Homo sapiens, UniProt P61073); assay: Competition binding to hCXCR4, Jurkat cells, [125I]FC-131 as radioligand; conditions: Jurkat cells 400.000 cells/sample, means ± SD of min. three separate experiments
T1 construct: hCXCR4-expressing Jurkat human T-cell leukemia cells; endogenous in cells; host or cells: Jurkat human T-cell leukemia cells (whole cells)
T1 sequence (P61073 whole entry): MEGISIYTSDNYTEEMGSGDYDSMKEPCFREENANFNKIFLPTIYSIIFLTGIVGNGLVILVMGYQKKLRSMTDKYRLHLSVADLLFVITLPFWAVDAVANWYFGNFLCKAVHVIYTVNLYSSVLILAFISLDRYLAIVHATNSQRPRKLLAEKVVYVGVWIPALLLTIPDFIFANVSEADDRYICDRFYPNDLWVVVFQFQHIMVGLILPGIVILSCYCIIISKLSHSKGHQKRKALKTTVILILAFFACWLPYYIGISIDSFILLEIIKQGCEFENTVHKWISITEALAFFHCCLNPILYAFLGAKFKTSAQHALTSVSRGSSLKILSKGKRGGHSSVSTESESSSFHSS
Method: Experiments were performed in triplicate with n=3 per concentration in each experiment. IC50 values were calculated using GraphPad Prism 6.01 (Graph Pad Software, San Diego, USA).
Figure 2 Binding affinities (IC50 in nM) of the respective ^natGa-, ^natLu-, ^natY- and ^natBi-complexes of PentixaFor (entry 1), PentixaTher (entry 2) and a series of CPCR4-(blue) and iodoCPCR4-(black) derived analogs with modified linker structure (entries 3-14) to human CXCR4 (hCXCR4). […] Each experiment was performed in triplicate, and results are means ± SD from a minimum of three separate experiments. TEXT PRINTED IN THE PICTURE: 1: ^natGa-complex IC50 [nM]: 24.8 ± 2.5; ^natLu-complex IC50 [nM]: 41 ± 12; ^natY-complex IC50 [nM]: 40 ± 27 | 2: ^natGa-complex IC50 [nM]: 6.1 ± 1.5; ^natLu-complex IC50 [nM]: 14.6 ± 1.0; ^natY-complex IC50 [nM]: 20.4 ± 0.3; ^natBi-complex IC50 [nM]: 24.4 ± 3.7 | 3: ^natGa-complex IC50 [nM]: 282 ± 90; ^natLu-complex IC50 [nM]: 12.5 ± 3.2; ^natY-complex IC50 [nM]: 216 ± 33; ^natBi-complex IC50 [nM]: 27 ± 14 | 4: ^natGa-complex IC50 [nM]: 14.4 ± 0.3; ^natLu-complex IC50 [nM]: 28 ± 9; ^natY-complex IC50 [nM]: 83 ± 30 | 5: ^natLu-complex IC50 [nM]: 106 ± 10 | 6: ^natGa-complex IC50 [nM]: 7.9 ± 1.1; ^natLu-complex IC50 [nM]: 5.9 ± 0.3; ^natY-complex IC50 [nM]: 6.7 ± 1.2; ^natBi-complex IC50 [nM]: 14.5 ± 0.2 | 7: ^natGa-complex IC50 [nM]: 47 ± 8; ^natLu-complex IC50 [nM]: 39 ± 1; ^natY-complex IC50 [nM]: 43 ± 2 | 8: ^natGa-complex IC50 [nM]: 3.6 ± 0.7; ^natLu-complex IC50 [nM]: 3.5 ± 0.3; ^natY-complex IC50 [nM]: 4.1 ± 1.3; ^natBi-complex IC50 [nM]: 3.5 ± 0.4 | 9: ^natGa-complex IC50 [nM]: 8.9 ± 3.8; ^natLu-complex IC50 [nM]: 8.0 ± 3.1; ^natY-complex IC50 [nM]: 6.3 ± 2.5 | 10: ^natGa-complex IC50 [nM]: 2.4 ± 0.1; ^natLu-complex IC50 [nM]: 3.6 ± 1.1; ^natY-complex IC50 [nM]: 2.4 ± 0.2; ^natBi-complex IC50 [nM]: 38 ± 25 | 11: ^natGa-complex IC50 [nM]: 9.7 ± 2.8; ^natLu-complex IC50 [nM]: 5.4 ± 1.6; ^natY-complex IC50 [nM]: 8.7 ± 2.9 | 12: ^natGa-complex IC50 [nM]: 1.4 ± 0.2; ^natLu-complex IC50 [nM]: 2.1 ± 0.3; ^natY-complex IC50 [nM]: 2.1 ± 0.3; ^natBi-complex IC50 [nM]: 2.9 ± 0.1 | 13: ^natGa-complex IC50 [nM]: 0.4 ± 0.1; ^natLu-complex IC50 [nM]: 1.5 ± 0.1; ^natY-complex IC50 [nM]: 1.5 ± 0.1 | 14: ^natGa-complex IC50 [nM]: 2.6 ± 1.0; ^natLu-complex IC50 [nM]: 1.7 ± 0.6; ^natY-complex IC50 [nM]: 1.6 ± 0.5; ^natBi-complex IC50 [nM]: 1.8 ± 0.8

[2] = adrenals, i.v., n=4-5, read-out: Biodistribution adrenals
[3] = blood, i.v., n=4-5, read-out: Biodistribution blood
[4] = colon, i.v., n=4-5, read-out: Biodistribution colon
[5] = femur, i.v., n=4-5, read-out: Biodistribution femur
[6] = heart, i.v., n=4-5, read-out: Biodistribution heart
[7] = kidney, i.v., n=4-5, read-out: Biodistribution kidney
[8] = liver, i.v., n=4-5, read-out: Biodistribution liver
[9] = lung, i.v., n=4-5, read-out: Biodistribution lung
[10] = muscle, i.v., n=4-5, read-out: Biodistribution muscle
[11] = pancreas, i.v., n=4-5, read-out: Biodistribution pancreas
[12] = small intestine, i.v., n=4-5, read-out: Biodistribution small intestine
[13] = spleen, i.v., n=4-5, read-out: Biodistribution spleen
[14] = stomach, i.v., n=4-5, read-out: Biodistribution stomach
[15] = tumor (Daudi xenograft), i.v., n=4-5, read-out: Biodistribution tumor (Daudi xenograft)
[16] = natBi-complex, read-out: ^natBi-complex IC50 to hCXCR4
[17] = natGa-complex, read-out: ^natGa-complex IC50 to hCXCR4
[18] = natLu-complex, read-out: ^natLu-complex IC50 to hCXCR4
[19] = natY-complex, read-out: ^natY-complex IC50 to hCXCR4

- tissue uptake at 6 h [1, 2]: 0.68 ± 0.21 %ID/g
- tissue uptake at 48 h [1, 2]: 0.6 ± 0.12 %ID/g
- tissue uptake at 6 h [1, 3]: 0.17 ± 0.09 %ID/g
- tissue uptake at 48 h [1, 3]: 0.03 ± 0.01 %ID/g
- tissue uptake at 1 h ([1]; brain, 1h p.i., tracer only, i.v., γ-counter, n=4-5, read-out: Biodistribution brain): 0.08 ± 0.01 %ID/g
- tissue uptake at 6 h [1, 4]: 0.49 ± 0.2 %ID/g
- tissue uptake at 48 h [1, 4]: 0.43 ± 0.3 %ID/g
- tissue uptake at 6 h [1, 5]: 0.56 ± 0.23 %ID/g
- tissue uptake at 48 h [1, 5]: 0.34 ± 0.08 %ID/g
- tissue uptake at 6 h [1, 6]: 0.28 ± 0.05 %ID/g
- tissue uptake at 48 h [1, 6]: 0.19 ± 0.02 %ID/g
- tissue uptake at 6 h [1, 7]: 3.2 ± 0.45 %ID/g
- tissue uptake at 48 h [1, 7]: 2.58 ± 0.69 %ID/g
- tissue uptake at 6 h [1, 8]: 17.1 ± 3.09 %ID/g
- tissue uptake at 48 h [1, 8]: 14.6 ± 2 %ID/g
- tissue uptake at 6 h [1, 9]: 1.07 ± 0.26 %ID/g
- tissue uptake at 48 h [1, 9]: 0.57 ± 0.04 %ID/g
- tissue uptake at 6 h [1, 10]: 0.06 ± 0.01 %ID/g
- tissue uptake at 48 h [1, 10]: 0.04 %ID/g
- tissue uptake at 6 h [1, 11]: 0.11 ± 0.02 %ID/g
- tissue uptake at 48 h [1, 11]: 0.09 ± 0.01 %ID/g
- tissue uptake at 6 h [1, 12]: 0.24 ± 0.06 %ID/g
- tissue uptake at 48 h [1, 12]: 0.16 ± 0.06 %ID/g
- tissue uptake at 6 h [1, 13]: 2.95 ± 0.75 %ID/g
- tissue uptake at 48 h [1, 13]: 2.72 ± 0.5 %ID/g
- tissue uptake at 6 h [1, 14]: 0.25 ± 0.09 %ID/g
- tissue uptake at 48 h [1, 14]: 0.14 ± 0.02 %ID/g
- tissue uptake at 6 h [1, 15]: 12.5 ± 2.56 %ID/g
- tissue uptake at 48 h [1, 15]: 8.11 ± 0.96 %ID/g
- tissue to tissue ratio at 48 h ([1]; tumor / blood, read-out: Tumor/organ ratio t/blood): 320 ± 104
- tissue to tissue ratio at 48 h ([1]; tumor / colon, read-out: Tumor/organ ratio t/colon): 19 ± 13
- tissue to tissue ratio at 48 h ([1]; tumor / heart, read-out: Tumor/organ ratio t/heart): 42 ± 7
- tissue to tissue ratio at 48 h ([1]; tumor / kidney, read-out: Tumor/organ ratio t/kidney): 3.1 ± 0.9
- tissue to tissue ratio at 48 h ([1]; tumor / liver, read-out: Tumor/organ ratio t/liver): 0.6 ± 0.1
- tissue to tissue ratio at 48 h ([1]; tumor / lung, read-out: Tumor/organ ratio t/lung): 14 ± 2
- tissue to tissue ratio at 48 h ([1]; tumor / muscle, read-out: Tumor/organ ratio t/muscle): 226 ± 36
- tissue to tissue ratio at 48 h ([1]; tumor / small intestine, read-out: Tumor/organ ratio t/small intestine): 50 ± 20
- tissue to tissue ratio at 48 h ([1]; tumor / spleen, read-out: Tumor/organ ratio t/spleen): 3 ± 0.7
- tissue to tissue ratio at 48 h ([1]; tumor / stomach, read-out: Tumor/organ ratio t/stomach): 58 ± 12
Molecule: C[C@@H](NC(=O)[C@@H](CCCNC(=N)N)NC(=O)CN1CCN(CC(=O)O)CCN(CC(=O)O)CCN(CC(=O)O)CC1)C(=O)Nc1ccc(C(=O)NCCC[C@@H]2C(=O)N[C@@H](CCCNC(=N)N)C(=O)N[C@@H](Cc3ccc4ccccc4c3)C(=O)NCC(=O)N[C@H](Cc3ccc(O)c(I)c3)C(=O)N2C)cc1 [[^177Lu]DOTA-r-a-ABA-iodoCPCR4, metal not drawn] (cyclo([2Nal]G[dTyr(3-I)][dNMeOrn]([4Abz-dA-dR-DOTA])R))

- IC50 (human CXCR4 (hCXCR4); [16]): 27 ± 14 nM
- IC50 (human CXCR4 (hCXCR4); [17]): 282 ± 90 nM
- IC50 (human CXCR4 (hCXCR4); [18]): 12.5 ± 3.2 nM
- IC50 (human CXCR4 (hCXCR4); [19]): 216 ± 33 nM
Molecule: DOTA-ABA-iodoCPCR4 (head to tail) [entry 3]

- IC50 (human CXCR4 (hCXCR4); [16]): 24.4 ± 3.7 nM
- IC50 (human CXCR4 (hCXCR4); [17]): 6.1 ± 1.5 nM
- IC50 (human CXCR4 (hCXCR4); [18]): 14.6 ± 1 nM
- IC50 (human CXCR4 (hCXCR4); [19]): 20.4 ± 0.3 nM
Molecule: DOTA-AMBS-iodoCPCR4 (head to tail) [entry 2, PentixaTher]
